Where two headings read alike, the source gives them in different places.
Columns and labels:
MCF-7 (breast) cells = assay: SRB growth inhibition assay, 96 hr exposure, MCF-7; format: cell-based, human
Protocol: (§1) Human cancer cell lines, MCF7 (breast), A549 (lung), Mia-PaCa2, PANC1 and HPAC (pancreatic), RCC4 and 786-0 renal, and the somatic human cell line WI-38 (lung fibroblast) were purchased from ATCC. Cell lines were maintained in appropriate medium supplemented with 10% foetal bovine serum (Invitrogen, UK), 2 mM L-glutamine (Invitrogen, Netherlands), and other components as specified by the suppliers. Cell lines were maintained at 37° C., 5% CO2 and routinely passaged. Drugs were dissolved in DMSO and filtered through 0.22 μm pore-size filter units before addition to cell line appropriate media. Cellular growth inhibition was measured using the sulforhodamine B (SRB) assay in 96 well plates as described previously.^1,2 Fifty percent inhibitory concentrations (IC50) were determined by taking the mean absorbance at 540 nm for each drug concentration expressed as a percentage of the absorbance of untreated control wells.
(§2) The anti-proliferative activity of the group of nine ND derivatives was assessed using the SRB assay following 96 h exposure to 2-fold serial dilutions of each compound (Table 2) in a panel of cancer cell lines together with a normal fibroblast line. […] In contrast the morpholine compounds all show sub-μM anti-proliferative activity in at least some of the cancer cell lines used and the two compounds 3d, 3h with n=3 —(CH2)n— linkers to the morpholine groups, show particularly potent activity in the Mia-PaCa2 and PANC1 pancreatic carcinoma and A549 lung adenocarcinoma cell lines (IC50 values of 10-20 nM).
(§3) Next a series of structural isomers were tested.

[1] = system: WI38 normal human fibroblast cells; assay: SRB growth inhibition assay, 96 hr exposure, WI38; format: cell-based
Protocol: as §1
as §2, with “nM). […]” for “nM).”

A549 (lung) cells = assay: SRB growth inhibition assay, 96 hr exposure, A549; format: cell-based, human
Protocol: as §1, §2, §3

duplex DNA (T-loop) = assay: FRET melting assay, duplex DNA; format: binding; settings: for change in melting temperature Tloop 1 uM: 1 uM ligand; for change in melting temperature Tloop 2 uM: 2 uM ligand
Text: (§4) The ability of the naphthalene diimide compounds to stabilize DNA sequences was investigated using a fluorescence resonance energy transfer (FRET) assay modified to be used as a high-throughput screen in a 96-well format. Several quadruplex sequences were studied (the human telomeric G-quadruplex DNA sequence 5′-FAM-d(GGG[TTAGGG]3)-TAMRA-3′ and the duplex sequence 5′-FAM-dTATAGCTATA-HEG-TATAGCTATA-TAMRA-3′ (HEG linker: [(—CH2—CH2—O—)6])), as well as two overlapping sequences from the HSP90 promoter region (HSP90a and HSP90b):
(§5) The labelled oligonucleotides have attached to them the donor fluorophore FAM: 6-carboxyfluorescein and the acceptor fluorophore TAMRA: 6-carboxytetramethylrhodamine. The FRET probe sequences were diluted from stock to the correct concentration (400 nM) in a 60 mM potassium cacodylate buffer (pH 7.4) and then annealed by heating to 85° C. for 10 min, followed by cooling to room temperature in the heating block. The compound was stored as a 10 mM stock solution in DMSO; final solutions (at 2×concentration) were prepared using 10 mM HCl in the initial 1:10 dilution, after which 60 mM potassium cacodylate buffer (pH 7.4) was used in all subsequent steps. The maximum HCl concentration in the reaction volume (at a ligand concentration of 20 μM) is thus 200 μM, well within the range of the buffer used. Relevant controls were also performed to check for interference with the assay. 96-Well plates (MJ Research, Waltham, Mass.) were prepared by aliquoting 50 μl of the annealed DNA into each well, followed by 50 μl of the compound solutions. Measurements were made on a DNA Engine Opticon (MJ Research) with excitation at 450-495 nm and detection at 515-545 nm. Fluorescence readings were taken at intervals of 0.5° C. in the range 30-100° C., with a constant temperature being maintained for 30 s prior to each reading to ensure a stable value. Final analysis of the data was carried out using a script written in the program Origin 7.0 (OriginLab Corp., Northampton, Mass.). The advanced curve-fitting function in Origin 7.0 was used for calculation of ΔTm values. All determinations were performed in triplicate or better. Esds in ΔTm are ±0.1° C.
(§6) The T-loop sequence represents duplex DNA.

[2] = system: HSP90a promoter quadruplex sequence; assay: FRET melting assay, Hsp90A quadruplex; format: binding; settings: for change in melting temperature Hsp90A 1 uM: 1 uM ligand; for change in melting temperature Hsp90A 2 uM: 2 uM ligand
Text: as §4
as §5, with “±0.1° C. […]” for “±0.1° C.”

[3] = system: MiaPaCa2 (pancreatic) cells; assay: SRB growth inhibition assay, MiaPaCa2; format: cell-based, human; settings: SRB assay, 96 hr exposure
Protocol: as §1, §2
Dose-response curves were used to guide the choice of compound concentration and time-points for the array experiments (FIG. 2a). […] To explore this response continuum the transcriptional signature of cells exposed for 24 h to 20 nM, 40 nM, 80 nM concentrations of 3d, or solvent alone as control, was analysed as described in Materials and Methods.
as §3

[4] = system: HSP90b promoter quadruplex sequence; assay: FRET melting assay, Hsp90B quadruplex; format: binding; settings: for change in melting temperature Hsp90B 1 uM: 1 uM ligand; for change in melting temperature Hsp90B 2 uM: 2 uM ligand
Text: as §4
as §5, with “±0.1° C. […]” for “±0.1° C.”

[5] = system: human telomeric G-quadruplex DNA (F21T); assay: FRET melting assay, human telomeric quadruplex; format: binding; settings: for change in melting temperature F21T 1 uM: 1 uM ligand; for change in melting temperature F21T 2 uM: 2 uM ligand; for selectivity for quadruplex over duplex DNA (in words): compared to the n=3 compounds
Text: as §4, §5
The ability of compounds 3a-h to stabilize a human telomeric quadruplex was assessed by a high-throughput FRET (Fluorescence Resonance Energy Transfer) melting technique. […] None of the furan tetrahydrofuran, pyranose or acyclic ether compounds has any effect on quadruplex or duplex stability.
as §6

RCC4 (renal) cells = assay: SRB growth inhibition assay, 96 hr exposure, RCC4; format: cell-based, human
Protocol: as §1, §2, §3

786-O (renal) cells = assay: SRB growth inhibition assay, 96 hr exposure, 786-O; format: cell-based, human; settings: SRB assay, 96 hr exposure
Protocol: as §1, §2, §3

Panc1 (pancreatic) cells = assay: SRB growth inhibition assay, 96 hr exposure, Panc1; format: cell-based, human; settings: 96 hr exposure
Protocol: as §1, §2, §3

[6] = Homo sapiens, A549, 96 hr exposure

Row | Structure (SMILES) | IC50 (MCF-7 (breast) cells; Homo sapiens, MCF7) [µM] | IC50 ([1]; Homo sapiens, WI-38) [µM] | IC50 (A549 (lung) cells; [6]) [µM] | change in melting temperature Tloop 1 uM (duplex DNA (T-loop)) | change in melting temperature Tloop 2 uM (duplex DNA (T-loop)) | change in melting temperature Hsp90A 1 uM [2] | change in melting temperature Hsp90A 2 uM [2] | IC50 ([3]; Homo sapiens, MIA PaCa-2) [µM] | change in melting temperature Hsp90B 1 uM [4] | change in melting temperature Hsp90B 2 uM [4] | change in melting temperature F21T 1 uM [5] | change in melting temperature F21T 2 uM [5] | IC50 (RCC4 (renal) cells; Homo sapiens, RCC4) [µM] | IC50 (786-O (renal) cells; Homo sapiens, 786-0) [µM] | also measured
1 | CN1CCN(CCCNc2cc3c4c(c(NCCCN5CCN(C)CC5)cc5c4c2C(=O)N(CCN2CCOCC2)C5=O)C(=O)N(CCN2CCOCC2)C3=O)CC1 [MM45] | 0.17 ± 0.01 | 0.61 ± 0.02 | 1.55 ± 0.02 | 0 | 1 | 34 | 36 | 0.04 ± 0.01 | 29 | 34 | 27 | 31 | 1.75 ± 0.18 | 0.63 ± 0.06 | –
2 | CN1CCN(CCN2C(=O)c3cc(NCCCN4CCOCC4)c4c5c(cc(NCCCN6CCOCC6)c(c35)C2=O)C(=O)N(CCN2CCN(C)CC2)C4=O)CC1 [SKM036] | – | – | – | 2 | 8 | 33 | 36 | – | 28 | 32 | 26 | 31 | – | – | IC50 (MCF-7 (breast) cells): 0.021 ± 0.001 µM; IC50 [1]: 0.18 ± 0.002 µM; IC50 (A549 (lung) cells; 96 hr exposure): 0.02 ± 0.001 µM; IC50 (Panc1 (pancreatic) cells): 0.005 ± 0.001 µM; IC50 [3]: 0.005 ± 0.001 µM; IC50 (RCC4 (renal) cells): 0.3 ± 0.016 µM; IC50 (786-O (renal) cells): 0.16 ± 0.021 µM
3 | COCCCN1C(=O)c2cc(NCCCN3CCN(C)CC3)c3c4c(cc(NCCCN5CCN(C)CC5)c(c24)C1=O)C(=O)N(CCCOC)C3=O [MM43] | 5.62 ± 0.15 | 3.32 ± 0.5 | 2.54 ± 0.01 | 0 | 0 | 29 | 32 | 2.79 ± 0.09 | 24 | 29 | <2 | 22 | 10.5 ± 0.14 | 7.17 ± 0.41 | –
4 | CN1CCN(CCNc2cc3c4c(c(NCCN5CCN(C)CC5)cc5c4c2C(=O)N(CCCN2CCOCC2)C5=O)C(=O)N(CCCN2CCOCC2)C3=O)CC1 [MM47] | 0.03 ± 0.01 | 2.46 ± 0.02 | 0.023 ± 0.006 | 8 | 12 | 32 | 36 | 0.01 ± 0.01 | 31 | 34 | 28 | 33 | 0.28 ± 0.06 | – | –
5 | CN1CCN(CCCNc2cc3c4c(c(NCCCN5CCN(C)CC5)cc5c4c2C(=O)N(CC2CCOCC2)C5=O)C(=O)N(CC2CCOCC2)C3=O)CC1 [MM33] | 3.12 ± 0.13 | 12.65 ± 0.11 | 2.92 ± 0.01 | 0 | 0 | <2 | <2 | 2.5 ± 0.01 | <2 | <2 | <2 | <2 | 8.38 ± 0.5 | 1.2 ± 0.03 | –
6 | CN1CCN(CCCNc2cc3c4c(c(NCCCN5CCN(C)CC5)cc5c4c2C(=O)N(CCN2CCOCC2)C5=O)C(=O)N(CCN2CCOCC2)C3=O)CC1 [Compound 3f, 4,9-bis((3-(4-methylpiperazin-1-yl)propyl)amino)-2,7-bis(2-morpholinoethyl)benzo[lmn][3,8]phenanthroline-1,3,6,8(2H,7H)-tetraone] | – | – | – | – | – | – | – | – | – | – | – | – | – | – | selectivity for quadruplex over duplex DNA (in words) [5]: superior selectivity for quadruplex over duplex DNA
7 | CN1CCN(CCCNc2cc3c4c(c(NCCCN5CCN(C)CC5)cc5c4c2C(=O)N(CC2CCCO2)C5=O)C(=O)N(CC2CCCO2)C3=O)CC1 (centres unmarked) [MM10] | > 10 | > 10 | 5.57 ± 0.87 | 0 | 0 | 27 | 30 | 5.65 ± 0.93 | 21 | 28 | 23 | 26 | > 10 | > 10 | –
8 | CN1CCN(CCNc2cc3c4c(c(NCCN5CCN(C)CC5)cc5c4c2C(=O)N(CCN2CCOCC2)C5=O)C(=O)N(CCN2CCOCC2)C3=O)CC1 [Compound 3g, 4,9-bis((2-(4-methylpiperazin-1-yl)ethyl)amino)-2,7-bis(2-morpholinoethyl)benzo[lmn][3,8]phenanthroline-1,3,6,8(2H,7H)-tetraone] | – | – | – | – | – | – | – | – | – | – | – | – | – | – | selectivity for quadruplex over duplex DNA (in words) [5]: superior selectivity for quadruplex over duplex DNA

Source: patent US9493460B2, “Diimide compounds” (UCL BUSINESS PLC, priority 2013, dated 2016)
